Consider 3 molecules from US20090155881A1, “CELL-FREE PROTEIN SYNTHESIS METHOD AND CELL-FREE PROTEIN SYNTHESIS REACTION SOLUTION USING ADENOSINE 3',5'-BISPHOSPHATE” (priority 2007, published 2009).

In the assay the test system is mRNA. Briefly: mRNA degradation suppressing effect in the cell-free protein synthesis reaction solution (Transdirect insect cell); remaining mRNA detected by agarose electrophoresis and EtBr staining. To be noted: for degradation suppressing effect: after 240 minutes. The class given is biochemical, Spodoptera frugiperda. On the procedure: Using Transdirect insect cell (SHIMADZU CORPORATION), each of the following reaction solutions was prepared in a scale of 50 μL. Transdirect insect cell is a cell-free protein synthesis reaction solution containing an extract from Sf21, and contains a potassium salt, a magnesium salt, adenosine triphosphate, guanosine triphosphate, creatine phosphate, creatine kinase, an amino acid component, a tRNA, a foreign mRNA, and a buffer as ingredients other than the extract derived from Sf21.
As the RNase inhibitor, an RNase inhibitor derived from a human placenta (TAKARA BIO) was used, and as the pAp, Adenosine 3′,5′-diphosphate sodium salt (SIGMA-ALDRICH) was used, and prepared as an aqueous solution of 100 mM. Each reaction solution was subjected to a translation reaction at 25° C.
For each reaction solution, reaction solutions after 0, 60, and 120 minutes from starting of a translation reaction were recovered. 10 μL of the recovered reaction solution was collected into 20 μL of TRIzol LS Reagent (Invitrogen), and the whole RNA was extracted. The extracted RNA was dissolved in 10 μL of pure water.
To each solution of extracted RNA, 4 μL of a loading buffer (Wako Pure Chemical Industries) was added, and the total was subjected to electrophoresis (a TAE buffer, 1% agarose gel). The RNA separated by electrophoresis was detected by EtBr (ethidium bromide) staining.
By the same steps as Steps 1 to 3 of Example 1, a translation reaction was conducted for the following reaction solutions.
As for Reaction Solution 6, pAp was added before the reaction so that the final concentration was 5 mM, and after 60 minutes from starting of the reaction, 2.5 μL of a 100 mM pAp aqueous solution prepared in step 3 was added. As a result, the pAp concentration of supplemented pAp excluding the pAp that was present from the initial stage of the reaction was 5 mM.
Steps 4 and 5 as same as those in Example 1 were conducted except that for each reaction solution, the reaction solution was recovered after 0, 120, 180, and 240 minutes from starting of the translation reaction.
In Reaction Solutions 7 and 8, a 4M aqueous LiCl solution was prepared for stock, and using the stock solution, the final concentration in the reaction solution was adjusted to 50 mM.
Steps 4 and 5 were conducted in the same manner as in Example 1 except that for each reaction solution, the reaction solution was recovered after 0, 180, and 240 minutes from starting of the translation reaction.

Take `[Cl-].[Li+]` [LiCl, lithium chloride]: where the note is “LiCl 50 mM alone, no pAp (lane 7), after 180 minutes”, the “mRNA remaining (electrophoresis)” value was “almost all the mRNA was degraded”.
As for `Nc1ncnc2c1ncn2[C@@H]1O[C@H](COP(=O)(O)O)[C@@H](OP(=O)(O)O)[C@H]1O` [pAp, adenosine 3′,5′-bisphosphate], the degradation suppressing effect result runs as follows: (5 mM pAp plus supplementation of 5 mM pAp after 60 minutes (Reaction Solution 6)) “sustained”; (10 mM pAp, supplementation not conducted (Reaction Solution 5)) “sustained”. In addition, the “RNA degradation suppressing effect” value (5 mM pAp, supplementation not conducted (Reaction Solution 4), after 180 minutes) is listed as “lost with time”. Further, the “mRNA remaining (electrophoresis)” value (pAp 5 mM alone, no LiCl (lane 4), after 180 minutes) is “almost all the mRNA was degraded”. The “mRNA degradation suppressing effect” value (pAp final concentration 5 mM, no RNase inhibitor (Reaction Solution 4), reaction times 60 and 120 minutes, 25° C.) is “apparent degradation suppressing effect”.

B1: RNase inhibitor: RNase inhibitor derived from a human placenta (TAKARA BIO) (protein, UniProt P13489 2-461, looked up)
Ribonuclease inhibitor: SLDIQSLDIQCEELSDARWAELLPLLQQCQVVRLDDCGLTEARCKDISSALRVNPALAELNLRSNELGDVGVHCVLQGLQTPSCKIQKLSLQNCCLTGAGCGVLSSTLRTLPTLQELHLSDNLLGDAGLQLLCEGLLDPQCRLEKLQLEYCSLSAASCEPLASVLRAKPDFKELTVSNNDINEAGVRVLCQGLKDSPCQLEALKLESCGVTSDNCRDLCGIVASKASLRELALGSNKLGDVGMAELCPGLLHPSSRLRTLWIWECGITAKGCGDLCRVLRAKESLKELSLAGNELGDEGARLLCETLLEPGCQLESLWVKSCSFTAACCSHFSSVLAQNRFLLELQISNNRLEDAGVRELCQGLGQPGSVLRVLWLADCDVSDSSCSSLAATLLANHSLRELDLSNNCLGDAGILQLVESVRQPGCLLEQLVLYDIYWSEEMEDRLQALEKDKPSLRVIS
Turning to B1, under “RNase inhibitor final concentration 1 U/μL, no pAp (Reaction Solution 3 vs Reaction Solution 2), 0, 60, 120 minutes”, the “mRNA degradation suppressing effect” value is reported as “not observed”.
